# Measured values reported in ChEMBL document CHEMBL2380239, “Novel ROS-activated agents utilize a tethered amine to selectively target acute myeloid leukemia” (Bioorg Med Chem Lett, 2013).
# Tested on: HeLa
# Assay: Cytotoxicity against human HeLa cells after 48 hrs by MTT assay
# Type: functional, cell-based
row,SMILES,IC50 [µM]
1,CN(CCCBr)c1ccccc1,> 125
2,Oc1ccc(OCCNc2ccccc2)cc1,30
3,CN(CCOc1ccc(O)cc1)c1ccccc1,18
4,CCN(CCOc1ccc(O)cc1)c1ccccc1,23
